# Values joined by “and” are separate entries in the source; they are usually repeats but may differ in a detail not shown here. Identical values can stand only once. Like-named read-outs stand apart in the source and are kept apart here. Residues, ends and D or L forms follow the SMILES beside them. *: point of attachment. X1 = Cn1c2ccccc2c2ccnc(-c3ccc(/C=C/C(=O)*)cn3)c21
# Columns and labels:
# Assay type in all cases: cell-based, human
# MRC-5 fibroblasts = conditions: for PI (IC50,dark/IC50,light) MRC-5: blue light 460 nm
# Experimental: (§1) The effect of Ir-H, Ir-Me, Ru-H, and Ru-Me on cell viability was evaluated in the A549 lung cancer and PC-3 prostate cancer cell lines by MTT assays. PC-3 cells were specifically chosen due to their high expression levels of GRPR on their surface, allowing for further evaluation of the activity of the BN3-derived metallopeptides Ir-BN and Ru-BN.[38],[51] In contrast, A549 cells express low levels of GRPR.[52] MRC-5 fibroblasts were used as a nonmalignant cell model.[53]Table 3 reports the half maximal inhibitory concentration (IC50) values obtained after treating the cells either under dark conditions or upon exposure to blue light at a dose of 24.1 J cm^–2. The photocytotoxicity index (PI), defined as the IC50,dark/IC50,light, is provided for each compound.
# (§2) Stock solutions of the complexes and metallopeptides were initially prepared at a concentration of 5 mM in DMSO and then diluted in sterile distilled water to achieve a final concentration of 1 mM, with a resulting DMSO concentration of 20% v/v. Cells were seeded into 96-well plates at a density of 2500 cells/well for A549, 3500 cells/well for PC-3, and 5500 cells/well for MRC-5. Following 24 h of incubation for attachment, cells were treated in triplicate with freshly prepared working solutions of the compounds in the culture medium at concentrations ranging from 0.001 to 100 μM. The maximum DMSO concentration in the working solutions was 2% (v/v). The working concentrations for each compound were adjusted based on their cytotoxicity. Following a 4 h incubation period to allow internalization of the compounds into the cells, the plates were kept in dark conditions or exposed to blue (460 nm) or red (655 nm) light for 1 h using an LED system (LuxLight), providing a total dose of 24.1 J cm^–2. All plates were incubated in the dark for an additional 43 h. Cells were then washed with phosphate-buffered saline (PBS), and 100 μL of fresh culture medium containing 10% of 3-[4,5-dimethylthiazol-2-yl]-2,5 diphenyl tetrazolium bromide (MTT) solution (0.5 mg/mL) (Sigma- Aldrich) was added to each well. After a 2 h incubation period, the formazan crystals were dissolved in DMSO, and the absorbance was measured at 570 nm using a Multiscan Plate Reader (Synergy 4, Biotek, Winooski, USA). The concentration causing a 50% reduction in cell viability (IC50) was determined for each compound with the Gen5 software (BioTek). At least three independent experiments were conducted for each compound.
# A549 lung cancer cells = conditions: for PI (IC50,dark/IC50,light) A549: blue light 460 nm
# Experimental: as §1, §2
# [1] = tested on: PC-3 prostate cancer cells; conditions: for PI (IC50,dark/IC50,light) PC-3: blue light 460 nm
# Experimental: as §1, §2
# PC-3 cells = assay: Mitochondrial membrane potential, JC-10 flow cytometry; conditions: IC50,light 4 h, blue light 1 h, control 63.0 ± 10.6%
# Experimental: Figure 12 Effect on mitochondria function. PC-3 cells were incubated with the indicated compounds at the corresponding IC50,light for 4 h at 37 °C and then exposed to blue light for 1 h. Cells incubated with the medium alone served as the negative control. (A) Confocal microscopy images of the cells. Nuclei were stained blue with Hoechst (λex: 350 nm; λem: 461 nm), and mitochondria were labeled with MitoTracker Red CMXRos (λex: 579 nm; λem: 599 nm). Insets show a 3× magnification of the cells. Scale bars represent 50 μm in 1× images and 20 μm in 3× images. (B) Flow cytometry analysis of the effect of the complexes on mitochondrial membrane potential. […] A decrease in the percentage of cells emitting orange fluorescence indicates a loss of MMP. p < 0.05 and ** p < 0.01 compared to control cells.
# Flow cytometry analysis using the mitochondrial specific dye JC-10 confirmed this effect. The fluorescence of JC-10 undergoes a reversible change from green to orange as MMP increases, due to the formation of JC-10 aggregates within polarized mitochondria. This property allows for the simultaneous detection of healthy and depolarized mitochondria. In control cells, orange fluorescence emission corresponding to healthy mitochondria was detected in 63.0 ± 10.6% of cells (Figure 12B). […] Furthermore, the complexes’ ability to photocatalytically oxidize NADH, a primary electron donor for the mitochondrial electron transport chain, may contribute to the mitochondrial damage.
# Flow cytometry assessment of the mitochondrial membrane depolarization: PC-3 cells were seeded on 12-well plates at a density of 100000 cells per well. 24 h later, cells were treated with the compounds as described above. Cells were subsequently harvested using trypsinization and incubated with JC-10 dye (Deltaclon) according to the manufacturer’s protocol. A Novocyte flow cytometer was employed to analyze the fluorescence emission of JC-10 in 10000 cells. Fluorescence was detected at 590 nm (FL2) to identify the percentage of cells with healthy mitochondria and at 529 nm (FL1) to determine the percentage of cells with depolarized mitochondria. Each compound was evaluated in three independent experiments, and the mean and standard deviation of the results were represented.
# [2] = MRC-5, 4 h incubation, blue light 1 h (460 nm, 24.1 J cm^–2), MTT after 48 h, read-out: IC50 MRC-5 Light
# [3] = MRC-5, 4 h incubation, kept in the dark 1 h, MTT after 48 h, read-out: IC50 MRC-5 Dark
# [4] = A549, 4 h incubation, blue light 1 h (460 nm, 24.1 J cm^–2), MTT after 48 h, read-out: IC50 A549 Light
# [5] = A549, 4 h incubation, kept in the dark 1 h, MTT after 48 h, read-out: IC50 A549 Dark
# [6] = PC-3, 4 h incubation, blue light 1 h (460 nm, 24.1 J cm^–2), MTT after 48 h, read-out: IC50 PC-3 Light
# [7] = PC-3, 4 h incubation, kept in the dark 1 h, MTT after 48 h, read-out: IC50 PC-3 Dark
"PI (IC50,dark/IC50,light) A549 (A549 lung cancer cells; A549)","PI (IC50,dark/IC50,light) PC-3 ([1]; PC-3)",IC50 (A549 lung cancer cells; [4]) [µM],IC50 (A549 lung cancer cells; [5]) [µM],"IC50 [1, 6] [µM]","IC50 [1, 7] [µM]",Compound,"PI (IC50,dark/IC50,light) MRC-5 (MRC-5 fibroblasts; MRC-5)",population of cells emitting JC-10 orange fluorescence (PC-3 cells) [%],IC50 (MRC-5 fibroblasts; [2]) [µM],IC50 (MRC-5 fibroblasts; [3]) [µM],further results
5.4,4.1,–,–,–,–,CC(C)C[C@H](NC(=O)[C@H](CC(C)C)NC(=O)[C@H](Cc1c[nH]cn1)NC(=O)CNC(=O)[C@@H](NC(=O)[C@H](C)NC(=O)[C@H](Cc1c[nH]c2ccccc12)NC(=O)[C@H](CCC(N)=O)NC(=O)[C@H](CC(N)=O)NC(=O)CNC(=O)[C@H](CC(C)C)NC(=O)[C@H](CCCNC(=N)N)NC(=O)[C@H](CCC(N)=O)NC(=O)/C=C/c1ccc(-c2nccc3c4ccccc4n(C)c23)nc1)C(C)C)C(N)=O [Ir-BN] (X1-QRLGNQWAVGHLL-NH2),2.8,16.0 ± 9.5,–,–,"IC50 (MRC-5 fibroblasts; 4 h): 28.7 ± 5.9 µM; IC50,light in MRC-5, fold higher than that of Ir-H (MRC-5 fibroblasts; MRC-5, blue light): 4.4 fold; IC50,dark in MRC-5, fold higher than that of Ir-H (MRC-5 fibroblasts; MRC-5, dark): 2.1 fold; IC50 (A549 lung cancer cells; 4 h): 12.6 ± 1.3 µM; IC50 ([1]; 4 h): 8.51 ± 0.8 µM; photoselectivity index (IC50,dark in nonmalignant cells/IC50,light in GRPR overexpressing cancer cells) ([1]; 24 h): 9.5; selectivity for PC-3 cells with respect to MRC-5 fibroblasts ([1]; after blue light): 3.4 fold"
10.5,3.49 and 3.5,3.32 ± 1.1,35 ± 5.4,9.23 ± 0.63,32.2 ± 1.9,Cn1c2ccccc2c2ccnc(-c3ccc(/C=C/C(=O)O)cn3)c21.[Cl-].[Ir+3].[c-]1ccccc1-c1ccccn1.[c-]1ccccc1-c1ccccn1 [Ir-H],6.1,16.6 ± 9.2,6.46 ± 0.801,39.1 ± 2.4,–
14.2,16.2,0.0334 ± 0.0068,0.471 ± 0.031,0.0723 ± 0.031,1.17 ± 0.29,COC(=O)/C=C/c1ccc(-c2nccc3c4ccccc4n(C)c23)nc1.[Cl-].[Ir+3].[c-]1ccccc1-c1ccccn1.[c-]1ccccc1-c1ccccn1 [Ir-Me],35.8,21.2 ± 4.9,0.0313 ± 0.019,1.12 ± 0.31,–
1.2,2.0,56.7 ± 1.6,67.8 ± 6.7,34.8 ± 4.3,70.4 ± 2.7,Cn1c2ccccc2c2ccnc(-c3ccc(/C=C/C(=O)O)cn3)c21.[Cl-].[Cl-].[Ru+2].c1ccc(-c2ccccn2)nc1.c1ccc(-c2ccccn2)nc1 [Ru-H],1.2,28.2 ± 7.8,43.5 ± 4.5,53.9 ± 5.4,"PI (IC50,dark/IC50,red light) MRC-5 (MRC-5 fibroblasts; MRC-5, red light 655 nm): 0.9; IC50 (MRC-5 fibroblasts; MRC-5, red light 1 h (655 nm, 24.1 J cm^–2), MTT after 48 h, read-out: IC50,redlight MRC-5): 62.3 ± 7.1 µM; PI (IC50,dark/IC50,red light) PC-3 ([1]; PC-3, red light 655 nm): 1.3; IC50 ([1]; PC-3, red light 1 h (655 nm, 24.1 J cm^–2), MTT after 48 h, read-out: IC50,redlight PC-3): 54.3 ± 4.7 µM"

# Source: paper PMC11483813, “Bombesin-Targeted Delivery of β-Carboline-Based Ir(III) and Ru(II) Photosensitizers for a Selective Photodynamic Therapy of Prostate Cancer” (Inorganic Chemistry, 2024)
